Measurements from patent US9603980B2, “Layer-by-layer stereocomplexed polymers as drug depot carriers or coatings in medical devices” (Cardinal Health Switzerland 515 GmbH, priority 2008, dated 2017).

Legend:
[1] = Drug concentration in liquid formulations (liquid chromatography / HPLC assay); format: physicochemical
From the text: In accordance with exemplary embodiments of the present invention, a series of liquid formulations were developed for the local or regional delivery of water insoluble compounds such as sirolimus and its analogs, including CCI-779, ABT-578 and everolimus, through weeping balloons and catheter injection needles. […] These liquid formulations increase the apparent solubility of the pharmacologically active but water insoluble compounds by two to four orders of magnitude as compared to the solubility limits of the compounds in water. These liquid formulations rely on the use of a very small amount of organic solvents such as Ethanol (typically less than two percent) and a larger amount of safe amphiphilic (of or relating to a molecule having a polar, water soluble group attached to a non-polar, water insoluble […]) excipients such as polyethylene glycol (PEG 200, PEG 400) and vitamin E TPGS to enhance the solubility of the compounds. These liquid formulations of highly water insoluble compounds are stable and readily flowable at room temperature. Certain excipients, such as Vitamin E TPGS and BHT may be utilized to enhance the storage stability of sirolimus compounds through their anti-oxidation properties. […]

[2] = test system: human smooth muscle cells; experiment: Cladribine Example: PDGF-stimulated cell proliferation, cell count on day six; format: cell-based; conditions: from IC50 values
Method: To assess the ability of cladribine to prevent cell proliferation, human smooth muscle or endothelial cells (Clonetics, Walkersville, Md.) were seeded at a density of 2000 cells/cm^2 (approximately 3600 cells/well) into each well of 12-well plates and cultured with 1.5 ml of growth medium containing five percent fetal calf serum (FCS). After twenty-four hours, the growth medium was changed and fresh medium containing 10 ng/ml platelet-derived growth factor AB (PDGF AB; LIFE Technologies), as well as various concentrations of cladribine (0.001-10,000 nM) were added with triplicate wells. Medium was replaced with fresh cladribine-containing medium after three days. On day six, cells were detached by trypsinization to yield a cell suspension, lightly centrifuged to pellet and then counted manually using a Neubauer hemocytometer system. Cell viability was assessed by trypan blue exclusion.

[3] = test system: human coronary artery smooth muscle cells; experiment: Anti-proliferative activity in non-synchronized cultured cells stimulated with two percent fetal bovine serum; format: cell-based
From the text: The multiple curves represent various concentrations of mycophenolic acid ranging from zero to one thousand nanomolar concentrations.
FIG. 58 illustrates, in graphical format, the anti-proliferative activity of cladribine in non-synchronized cultured human coronary artery smooth muscle cells stimulated with two percent fetal bovine serum.
The multiple curves represent various concentrations of cladribine ranging from zero to nine hundred nanomolar concentrations.

[4] = In vivo release kinetics from stent coatings, porcine pharmacokinetics studies
From the text: The topcoat is two hundred micro grams.
(§1) The basecoat is applied to Bx Velocity® stents and implanted into Yorkshire pigs.
as §1

[5] = test system: human coronary artery smooth muscle cells; experiment: Anti-proliferative activity in synchronized cultured cells stimulated with two percent fetal bovine serum; format: cell-based
From the text: (§2) The multiple curves represent various concentrations of topotecan ranging from zero to three hundred nanomolar concentrations.
(§3) The multiple curves represent various concentrations of etoposide ranging from zero to eight hundred nanomolar concentrations.
The multiple curves represent various concentrations of Panzem® ranging from zero to 100 micromolar concentrations.

[6] = test system: cell viability; experiment: Cell viability assay; format: cell-based
From the text: as §2, §3

[7] = test system: human coronary artery smooth muscle cells; experiment: Antiproliferative effects of PX867 on cultured cells; format: cell-based
From the text: A PI3 kinase inhibitor can affect restinosis when administered by local or systemic delivery alone or in combination with sirolimus. FIGS. 87 and 88 illustrate the antiproliferative effects of PX867 on cultured human coronary artery smooth muscle cells alone (FIG. 87) or in combination with sirolimus (FIG. 88). […] Curve 8702 illustrates the percent inhibition for various concentrations. In FIG. 88, the six curves 8802, 8804, 8806, 8808, 8810 and 8812 represent various concentrations of PX867 with various concentrations of sirolimus. […] More specifically, curve 8812 illustrates the percent inhibition for a 240 nM PX-867 concentration. […] This may be compared to curve 8804 which represents a 15 nM PX-867 concentration. As one can see, the percent inhibition increases as the concentration of sirolimus increases. Accordingly, a potent PI3 kinase inhibitor, such as PX-867, can improve the inhibition of coronary artery smooth muscle cell proliferation either as a stand alone treatment or via combination with another restenotic agent, such as sirolimus.

[8] = test system: human coronary artery smooth muscle cell; experiment: MTS cytotoxicity assay; format: cell-based; conditions: concentrations up to 30,000.00 nanomolar (6.6 to 30,000.00 nanomolar tested)
From the text: Typically, a control is utilized to determine baseline toxicity.

[9] = Porcine drug elution PK study of dual drug eluting coating; format: in vivo; conditions: after eight (8) days of implantation, single-layer coating of FIG. 83
From the text: Another critical parameter for the performance of the thrombus resistance of a device coated with cilostazol is the duration of the drug release from the coating. This is of particular significance in the two weeks after device implantation. In the porcine drug elution PK studies of the dual drug eluting coating, both cilostazol and sirolius were slowly released from the coating, resulting in a sustained drug release profile. The purpose of the porcine PK study is to assess the local pharmacokinetics of a drug eluting stent at a given implantation time. Normally three stents are implanted in three different coronary arteries in a pig for a given time point and then retrieved for total drug recovery analysis. The stents are retrieved at predetermined time points; namely, 1, 3 and 8 days. The stents are extracted and the total amount of drug remaining on the stents is determined by analysis utilizing HPLC (high performance liquid chromatography) for total drug amount. The difference between the original amount of drug on the stent and the amount of drug retrieved at a given time represents the amount of drug released in that period. The continuous release of drug into surrounding arterial tissue is what prevents the neointimal growth and restenosis in the coronary artery. A normal plot represents the percentage of total drug released (%, y-axis) vs. time of implantation (day, x-axis). […]

[10] = In vitro release of sirolimus and cilostazol from single-layer coating; format: physicochemical; conditions: single-layer coating of FIG. 83
[11] = test system: human coronary artery smooth muscle cell; experiment: Inhibition of coronary artery smooth muscle cell proliferation by trichostatin A, in vitro cell culture study; format: cell-based
From the text: FIG. 51 is a graph of the inhibition of coronary artery smooth muscle cells by trichostatin A in a cell culture study.

[12] = test system: tumor cell lines; conditions: cited from earlier work

**Q.** With `CO[C@H]1C[C@@H]2CC[C@@H](C)[C@@](O)(O2)C(=O)C(=O)N2CCCC[C@H]2C(=O)O[C@H]([C@H](C)C[C@@H]2CC[C@@H](OC(=O)C(C)(CO)CO)[C@H](OC)C2)CC(=O)[C@H](C)/C=C(\C)[C@@H](O)[C@@H](OC)C(=O)[C@H](C)C[C@H](C)/C=C/C=C/C=C/1C` [CCI-779] as the compound, how does the “concentration in the final solution (HPLC assay)” value ([1]; ethanol less than two percent, Vitamin E TPGS, water) read?
**A.** 15000 µg/mL

**Q.** With `Nc1nc(Cl)nc2c1ncn2[C@H]1C[C@H](O)[C@@H](CO)O1` [Cladribine, 2-chlorodeoxyadenosine] as the compound, how does the “potency as inhibitor of smooth muscle cells relative to endothelial cells” value [2] read?
**A.** approximately twice

**Q.** What about the “effect of addition to cells treated with rapamycin” value ([3]; cladribine 56.25 to 900 nanomolar) of the same compound?
**A.** increases the percent inhibition of rapamycin alone

**Q.** And the “inhibition of human coronary artery smooth muscle cell proliferation” value ([3]; non-synchronized cells, two percent fetal bovine serum)?
**A.** completely inhibits

**Q.** And the “in vivo elution from polymeric stent coating, compared with co-loaded drug” value ([4]; Yorkshire pigs, EVA/BMA basecoat, BMA topcoat, Bx Velocity stents)?
**A.** elutes more rapidly than rapamycin

**Q.** What does the source list for `COc1cc([C@@H]2c3cc4c(cc3[C@@H](O[C@@H]3O[C@@H]5CO[C@@H](C)O[C@H]5[C@H](O)[C@H]3O)[C@H]3COC(=O)[C@H]23)OCO4)cc(OC)c1O` [Etoposide, etoposide]?
**A.** effect of addition to cells treated with rapamycin ([5]; etoposide 255.7 to eight-hundred nanomolar): increases the percent inhibition of rapamycin alone; cytotoxicity ([6]; concentrations up to ten micromolar): non-cytotoxic

**Q.** With `COC[C@H]1OC(=O)/C(=C\N2CCCC2)C2=C(O)C(=O)C3=C([C@H](OC(C)=O)C[C@]4(C)C(=O)CC[C@@H]34)[C@]21C` [PX-867] as the compound, how does the “inhibition of coronary artery smooth muscle cell proliferation” value ([7]; PX867 alone, concentration of about 10^−6 (unit not given)) read?
**A.** one hundred

**Q.** What about the combination with sirolimus ([7]; PX-867 15 to 240 nM with various concentrations of sirolimus) of the same compound?
**A.** strong synergistic effect

**Q.** What does the source list for `COc1cc2c(cc1O)CC[C@@H]1[C@@H]2CC[C@]2(C)[C@@H](O)CC[C@@H]12` [Panzem®, 2-methoxyestradiol]?
**A.** effect of addition to cells treated with rapamycin ([5]; Panzem 0.813 to 100 micromolar): increases the percent of inhibition of rapamycin alone; inhibition of human coronary artery smooth muscle cell proliferation in vitro ([5]; agent alone): extremely effective inhibitor; human coronary artery smooth muscle cell survival [8]: do not reduce human coronary artery smooth muscle cell survival

**Q.** With `CC[C@@]1(O)C(=O)OCc2c1cc1n(c2=O)Cc2cc3c(CN(C)C)c(O)ccc3nc2-1` [Topotecan, topotecan] as the compound, how does the “effect of addition to cells treated with rapamycin” value ([5]; topotecan 18.8 to 300 nanomolar) read?
**A.** increases the percent inhibition of rapamycin alone

**Q.** What about the cytotoxicity ([6]; concentrations up to one micromolar) of the same compound?
**A.** non-cytotoxic

**Q.** For `O=C1CCc2cc(OCCCCc3nnnn3C3CCCCC3)ccc2N1` [cilostazol, 6[4-(1-cyclohexyl-1H-tetrazol-5-yl)-butoxy]-3,4-dihydro-2-(1H)-quinolinone], which “drug remaining in the drug coating” value [9] is on record?
**A.** ~80%

**Q.** And the in vitro release [10]?
**A.** ~35%

**Q.** Which results are given for `COc1c(C)c2c(c(O)c1C/C=C(\C)CCC(=O)O)C(=O)OC2` [mycophenolic acid]?
**A.** effect of addition on the anti-proliferative rapamycin dose response curve ([3]; mycophenolic acid zero to one thousand nanomolar, leftward and upward shift): potentiates the anti-proliferative activity of rapamycin; in vivo release from basecoat, compared with co-loaded drug ([4]; porcine, EVA/BMA basecoat with rapamycin and mycophenolic acid 180 μg each, with or without BMA topcoat): elutes more completely over a shorter duration than the rapamycin

**Q.** Which results are given for `CO[C@H]1C[C@@H]2CC[C@@H](C)[C@@](O)(O2)C(=O)C(=O)N2CCCC[C@H]2C(=O)O[C@H]([C@H](C)C[C@@H]2CC[C@@H](O)[C@H](OC)C2)CC(=O)[C@H](C)/C=C(\C)[C@@H](O)[C@@H](OC)C(=O)[C@H](C)C[C@H](C)/C=C/C=C/C=C/1C` [rapamycin]?
**A.** in vivo release rate, compared with co-loaded drug ([4]; porcine, PVDF basecoat with PVDF topcoat): slower release rate than that of mycophenolic acid; drug remaining in the drug coating [9]: ~80%; concentration relative to the solubility of sirolimus in water ([1]; 4 mg/ml formulation): four hundred to about one thousand

**Q.** Which “inhibition of human coronary artery smooth muscle cell proliferation” value [11] does the source give for `CC(/C=C/C(=O)NO)=C\[C@@H](C)C(=O)c1ccc(N(C)C)cc1` [trichostatin A] here?
**A.** completely inhibit

**Q.** And the IC50 ([11]; read-out: anti-proliferative IC50)?
**A.** ~6 nM

**Q.** And the “anti-proliferative IC50's” value [12]?
**A.** low nM range
